Measured values from patent EP1561465A2, “Methods of use of fluoroquinolone compounds against bacteria” (LG Life Sciences, Ltd., priority 1999, dated 2001).
Values after ≈ are worked out from the molar mass of the structure shown. Read-outs that look alike come from different tables or passages of the source.

Legend:
Assay type in all cases: cell-based
Escherichia coli = assay: MIC by NCCLS broth microdilution, 1100 Japanese clinical isolates 1997-1998; settings: for MIC50 / MIC90: Escherichia coli
Staphylococcus aureus [1] = assay: microbe, parasite or virus in culture
Streptococcus pneumoniae = assay: MIC by NCCLS reference broth microdilution, 450 respiratory tract pathogens; settings: Streptococcus pneumoniae
Haemophilus influenzae = assay: MIC by two-fold serial agar dilution, Sensitivity Disk agar-N (Kitasato isolates); settings: Haemophilus influenzae (24)
Proteus mirabilis = assay: MIC by NCCLS broth microdilution, 1100 Japanese clinical isolates 1997-1998; settings: Proteus mirabilis (n=30)
Staphylococcus aureus [2] = assay: as above; settings: for MIC: Staphylococcus aureus quinolone resistant
[3] = MIC by agar dilution, Brucella HK agar, 491 anaerobic clinical isolates; settings: clinical isolates of Bacteroides spp., Prevotella bivia and other Prevotella spp.
Enterococcus gallinarum = assay: MIC by NCCLS broth microdilution, 1100 Japanese clinical isolates 1997-1998; settings: Enterococcus gallinarum, GALLINARUM, Enterococcus gallinarum (vanC1), read-out: MIC
[4] = Escherichia coli ciprofloxacin resistant (n=5)
[5] = Escherichia coli ciprofloxacin susceptible (n=37)
[6] = Streptococcus pneumoniae (n = 100)
[7] = erythromycin resistant M phenotype (n = 16)
[8] = erythromycin resistant MLSB phenotype (n = 16)
[9] = penicillin intermediate (n = 16)
[10] = penicillin susceptible (n = 20)
[11] = Staphylococcus aureus oxacillin susceptible (n=41)
[12] = Staphylococcus aureus, Staphylococcus aureus oxacillin resistant (n=57)

Structure (SMILES): C[C@@H]1CN(c2c(F)c(N)c3c(=O)c(C(=O)O)cn(C4CC4)c3c2F)C[C@H](C)N1 [Sparfloxacin, sparfloxacin]
- MIC Range (Escherichia coli; [4]): 8 to 128 µg/mL
- MIC Range (Escherichia coli; [5]): ≤0.008 to 0.25 µg/mL
- MIC50 (Escherichia coli; [4]): 32 µg/mL (≈ 81.5 µM)
- MIC90 (Escherichia coli; Escherichia coli ciprofloxacin resistant (n=5), values marked *: MIC80 value): 128 µg/mL (≈ 326 µM)
- MIC50 (Escherichia coli; [5]): 0.016 µg/mL (≈ 0.0408 µM)
- MIC90 (Escherichia coli; [5]): 0.032 µg/mL (≈ 0.0815 µM)
- MIC Range (Staphylococcus aureus [1]; Methicillin-resistant (38)): 0.063 to 64 µg/mL
- MIC Range (Staphylococcus aureus [1]; Methicillin-susceptible (9)): 0.063 to 0.5 µg/mL
- MIC50 (Staphylococcus aureus [1]; Staphylococcus aureus, Methicillin-resistant (38)): 2 µg/mL (≈ 5.1 µM)
- MIC90 (Staphylococcus aureus [1]; Staphylococcus aureus, Methicillin-resistant (38), read-out: MIC90): 64 µg/mL (≈ 163 µM)
- MIC50 (Staphylococcus aureus [1]; Staphylococcus aureus, Methicillin-susceptible (9)): 0.125 µg/mL (≈ 0.319 µM)
- MIC (Staphylococcus aureus [1]; Staphylococcus aureus, S. aureus KU2240, mutant type Wild (wild strain)): 0.25 µg/mL (≈ 0.637 µM)
- MIC (Staphylococcus aureus [1]; Staphylococcus aureus, S. aureus KU2241, mutant type NorA (efflux-mediated quinolone resistant)): 0.25 µg/mL (≈ 0.637 µM)
- MIC (Staphylococcus aureus [1]; Staphylococcus aureus, S. aureus KU2242, mutant type T (DNA topoisomerase IV)): 0.25 µg/mL (≈ 0.637 µM)
- MIC (Staphylococcus aureus [1]; Staphylococcus aureus, S. aureus KU2243, mutant type G+T (DNA gyrase and topoisomerase IV)): 64 µg/mL (≈ 163 µM)
- MIC (Staphylococcus aureus [1]; Staphylococcus aureus, S. aureus KU2244, mutant type G (DNA gyrase)): 0.25 µg/mL (≈ 0.637 µM)
- MIC (Staphylococcus aureus [1]; Staphylococcus aureus, S. aureus KU2245, mutant type G+T (DNA gyrase and topoisomerase IV)): 64 µg/mL (≈ 163 µM)
- MIC (Staphylococcus aureus [1]; Staphylococcus aureus, S. aureus KU2246, mutant type T (DNA topoisomerase IV)): 0.25 µg/mL (≈ 0.637 µM)
- MIC (Streptococcus pneumoniae; [6]): 0.12 to 1 µg/mL (≈ 0.306 to 2.55 µM)
- MIC50 (Streptococcus pneumoniae; [6]): 0.5 µg/mL (≈ 1.27 µM)
- MIC90 (Streptococcus pneumoniae; [6]): 0.5 µg/mL (≈ 1.27 µM)
- MIC (Streptococcus pneumoniae; [7]): 0.25 µg/mL (≈ 0.637 µM)
- MIC50 (Streptococcus pneumoniae; [7]): 0.25 µg/mL (≈ 0.637 µM)
- MIC90 (Streptococcus pneumoniae; [7]): 0.25 µg/mL (≈ 0.637 µM)
- MIC (Streptococcus pneumoniae; [8]): 0.12 to 0.5 µg/mL (≈ 0.306 to 1.27 µM)
- MIC50 (Streptococcus pneumoniae; [8]): 0.25 µg/mL (≈ 0.637 µM)
- MIC90 (Streptococcus pneumoniae; [8]): 0.25 µg/mL (≈ 0.637 µM)
- MIC (Streptococcus pneumoniae; multi-drug resistant (n = 16)): 0.12 to 0.5 µg/mL (≈ 0.306 to 1.27 µM)
- MIC50 (Streptococcus pneumoniae; multi-drug resistant (n = 16)): 0.5 µg/mL (≈ 1.27 µM)
- MIC90 (Streptococcus pneumoniae; multi-drug resistant (n = 16)): 0.5 µg/mL (≈ 1.27 µM)
- MIC (Streptococcus pneumoniae; [9]): 0.5 to 1 µg/mL (≈ 1.27 to 2.55 µM)
- MIC50 (Streptococcus pneumoniae; [9]): 0.5 µg/mL (≈ 1.27 µM)
- MIC90 (Streptococcus pneumoniae; [9]): 0.5 µg/mL (≈ 1.27 µM)
- MIC (Streptococcus pneumoniae; penicillin resistant (n = 18)): 0.25 to 1 µg/mL (≈ 0.637 to 2.55 µM)
- MIC50 (Streptococcus pneumoniae; penicillin resistant (n = 18)): 0.5 µg/mL (≈ 1.27 µM)
- MIC90 (Streptococcus pneumoniae; penicillin resistant (n = 18)): 1 µg/mL (≈ 2.55 µM)
- MIC (Streptococcus pneumoniae; [10]): 0.12 to 0.5 µg/mL (≈ 0.306 to 1.27 µM)
- MIC50 (Streptococcus pneumoniae; [10]): 0.25 µg/mL (≈ 0.637 µM)
- MIC90 (Streptococcus pneumoniae; [10]): 0.25 µg/mL (≈ 0.637 µM)
- MIC50 (Haemophilus influenzae): 0.016 µg/mL (≈ 0.0408 µM)
- MIC90 (Haemophilus influenzae): 0.031 µg/mL (≈ 0.079 µM)
- MIC Range (Haemophilus influenzae): ≤4 to 63 ng/mL
- MIC Range (Proteus mirabilis): 0.063 to 16 µg/mL
- MIC50 (Proteus mirabilis; read-out: MIC50): 0.25 µg/mL (≈ 0.637 µM)
- MIC90 (Proteus mirabilis; read-out: MIC90): 0.5 µg/mL (≈ 1.27 µM)
- MIC Range (Staphylococcus aureus [2]; Staphylococcus aureus oxacillin resistant (n=57)): 0.032 to 128 µg/mL
- MIC90 (Staphylococcus aureus [2]; [11]): 0.125 µg/mL (≈ 0.319 µM)
- MIC Range (Staphylococcus aureus [2]; [11]): 0.032 to 1 µg/mL
- MIC50 (Staphylococcus aureus [2]; [12]): 4 µg/mL (≈ 10.2 µM)
- MIC90 (Staphylococcus aureus [2]; [12]): 32 µg/mL (≈ 81.5 µM)
- MIC50 (Staphylococcus aureus [2]; Staphylococcus aureus, Staphylococcus aureus oxacillin susceptible (n=41)): 0.063 µg/mL (≈ 0.161 µM)
- MIC (Staphylococcus aureus [2]; Staphylococcus aureus, strain TMS1* (spontaneous mutant resistant to ciprofloxacin)): 0.125 µg/mL (≈ 0.319 µM)
- MIC (Staphylococcus aureus [2]; Staphylococcus aureus, strain TMS3, read-out: MIC): 128 µg/mL (≈ 326 µM)
- MIC (Staphylococcus aureus [2]; Staphylococcus aureus, strain TMS4, read-out: MIC): 8 µg/mL (≈ 20.4 µM)
- MIC (Staphylococcus aureus [2]; Staphylococcus aureus, strain TMS5, read-out: MIC): 8 µg/mL (≈ 20.4 µM)
- MIC (Staphylococcus aureus [2]; Staphylococcus aureus, strain TMS6, read-out: MIC): 2 µg/mL (≈ 5.1 µM)
- MIC90 [3]: 4 to 32 µg/mL (≈ 10.2 to 81.5 µM)
- MIC (Enterococcus gallinarum; strain TMS1): 0.25 µg/mL (≈ 0.637 µM)
- MIC (Enterococcus gallinarum; strain TMS2): 0.5 µg/mL (≈ 1.27 µM)
- MIC (Enterococcus gallinarum; strain TMS3): 0.5 µg/mL (≈ 1.27 µM)
- MIC (Enterococcus gallinarum; strain TMS4): 0.25 µg/mL (≈ 0.637 µM)
